Test results from patent US10111435B2, “Herbicidal compositions containing N-(1,3,4-oxadiazol-2-yl)-aryl carboxylic acid amides” (BAYER CROPSCIENCE AKTIENGESELLSCHAFT, priority 2013, dated 2018).

Legend:
Assay type in all cases: in vivo
Poa annua (POAAN) = test: greenhouse post-emergence herbicidal efficacy against POAAN
Method in brief: (§1)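 Seeds were sown in 8 cm pots of sandy loam and germinated under optimal conditions. Compositions or single active ingredients were sprayed post-emergence at 300 L/ha in the greenhouse. Visual % damage versus untreated plants (0% none, 100% complete kill) was scored 14 and 21 days after application, with Colby expected values (E^C=A+B−A×B/100) used to judge synergism.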

Galium aparine (GALAP) = test: greenhouse post-emergence herbicidal efficacy against GALAP
Method in brief: as §1

DIGSA = test: greenhouse post-emergence herbicidal efficacy against DIGSA
Protocol: (§2) All trials whose results are shown were conducted in a greenhouse by the methodology specified below. The effect of the inventive herbicidal compositions was examined on the following harmful plants 14 and 21 days after application:
(§3) The harmful plant seeds were sown in pots (diameter 8 cm) with sandy loam soil and germinated under optimal conditions. The inventive herbicidal compositions or the active ingredients alone were applied post-emergence to the planted pots with a spray volume of 300 L/ha. The trial was conducted in a greenhouse under optimum growth conditions. The herbicidal effects were assessed visually by comparison of untreated and treated plants. The percentages mean: 0%=no effects, 100%=the plants die off completely). The percentages are used to calculate interactions between individual treatments and combination treatments according to S. R. Colby, Weeds 15, pages 20 to 22 (1967).
(§4) The abbreviations mean: • a.i.=active ingredient • E^C=expected value according to Colby (E^C=A+B−A×B/100) • Diff: =difference (%) of measured value from expected value (%) (measured value minus expected value)
(§5) Assessment: • measured value E is greater than E^C:->synergism (+ diff.) • measured value E equals E^C:->additive effect • measured value E is smaller than E^C:->antagonism(− diff.)

[1] = tested on: Amaranthus retroflexus (AMARE); test: greenhouse post-emergence herbicidal efficacy against AMARE
Protocol: as §2
(§6) Echinochloa crus-galli (ECHCG), Eleusine indica (ELEIN), Setaria viridis (SETVI), Amaranthus retroflexus (AMARE), Chenopodium album (CHEAL), Kochia scoparia (KCHSC), Solanum nigrum (SOLNI), Avena fatua (AVEFA), Bromus sterilis (BROST), Lolium multiflorum (LOLMU), Phalaris minor (PHAMI), Poa annua (POAAN), Galium aparine (GALAP), Matricaria inodora (MATIN) and Polygonum convolvulus (POLCO).
as §3, §4, §5

Bromus sterilis (BROST) = test: greenhouse post-emergence herbicidal efficacy against BROST
Method in brief: as §1

[2] = tested on: Polygonum convolvulus (POLCO); test: greenhouse post-emergence herbicidal efficacy against POLCO
Method in brief: as §1

Phalaris minor (PHAMI) = test: greenhouse post-emergence herbicidal efficacy against PHAMI
Method in brief: as §1

[3] = tested on: Lolium multiflorum (LOLMU); test: greenhouse post-emergence herbicidal efficacy against LOLMU
Method in brief: as §1

Eleusine indica (ELEIN) = test: greenhouse post-emergence herbicidal efficacy against ELEIN
Protocol: as §2, §6, §3, §4, §5

Setaria viridis (SETVI) = test: greenhouse post-emergence herbicidal efficacy against SETVI
Protocol: as §2, §6, §3, §4, §5

[4] = tested on: Echinochloa crus-galli (ECHCG); test: greenhouse post-emergence herbicidal efficacy against ECHCG; settings: 0.4 g of a.i./ha
Protocol: as §2, §6, §3, §4, §5

[5] = tested on: Chenopodium album (CHEAL); test: greenhouse post-emergence herbicidal efficacy against CHEAL
Protocol: as §2, §6, §3, §4, §5

[6] = tested on: Matricaria inodora (MATIN); test: greenhouse post-emergence herbicidal efficacy against MATIN
Method in brief: as §1

Avena fatua (AVEFA) = test: greenhouse post-emergence herbicidal efficacy against AVEFA
Method in brief: as §1

[7] = 14 days after application, 2.5 g of a.i./ha
[8] = 21 days after application, g of a.i./ha: A1-14 2.5, pyrasulfotole 25
[9] = 21 days after application, g of a.i./ha: A1-14 2.5, pyrasulfotole 100
[10] = 21 days after application, g of a.i./ha: A1-14 10, pyrasulfotole 25
[11] = 14 days after application, 0.4 g of a.i./ha
[12] = 21 days after application, 0.4 g of a.i./ha
[13] = 14 days after application, 0.1 g of a.i./ha
[14] = 14 days after application, 10 g of a.i./ha
[15] = 21 days after application, g of a.i./ha: A1-14 10, pyrasulfotole 100
[16] = 21 days after application, g of a.i./ha: A1-55 2.5, glufosinate-ammonium 100
[17] = 21 days after application, g of a.i./ha: A1-55 10, glufosinate-ammonium 100
[18] = 21 days after application, g of a.i./ha: A1-55 10, glufosinate-ammonium 25
[19] = 14 days after application, 0.5 g of a.i./ha
[20] = 21 days after application, 2 g of a.i./ha
[21] = 21 days after application, g of a.i./ha: A1-55 2.5, glufosinate-ammonium 25
[22] = 14 days after application, 2 g of a.i./ha

Molecule `Cc1nnc(NC(=O)c2ccc(C(F)(F)F)c([S+](C)[O-])c2Cl)o1` (stereo not shown) [A1-14] has an Efficacy (Poa annua (POAAN); [7]) of 10%, an Efficacy (Poa annua (POAAN); [8]) of 0% and an Efficacy (Poa annua (POAAN); [9]) of 0%. The Efficacy (Galium aparine (GALAP); [8]) was 0%, the Efficacy (Galium aparine (GALAP); [10]) was 15% and the Efficacy (DIGSA; [11]) was 0%. It also gave an Efficacy (DIGSA; [12]) of 0%, an Efficacy [1, 13] of 0% and an Efficacy (Bromus sterilis (BROST); [7]) of 0%. The Efficacy (Bromus sterilis (BROST); [14]) was 3%, the Efficacy (Bromus sterilis (BROST); [15]) was 0% and the Efficacy [2, 7] was 20%. The Efficacy [2, 14] was 20%, the Efficacy [2, 8] was 0% and the Efficacy [2, 9] was 0%. It also gave an Efficacy [2, 10] of 3%, an Efficacy [2, 15] of 3% and an Efficacy (Phalaris minor (PHAMI); [7]) of 0%. It also gave an Efficacy (Phalaris minor (PHAMI); [14]) of 25%, an Efficacy (Phalaris minor (PHAMI); [8]) of 0% and an Efficacy (Phalaris minor (PHAMI); [9]) of 0%. The Efficacy [3, 7] was 0%, the Efficacy [3, 14] was 0% and the Efficacy (Eleusine indica (ELEIN); [13]) was 0%. The Efficacy (Eleusine indica (ELEIN); [11]) was 20%, the Efficacy (Setaria viridis (SETVI); [13]) was 0% and the Efficacy (Setaria viridis (SETVI); [12]) was 0%. It also gave an Efficacy ([4]; 14 days after application) of 0%, an Efficacy ([4]; 21 days after application) of 0% and an Efficacy [5, 13] of 0%. For the same molecule, the Efficacy ([5]; 21 days after application, 0.1 g of a.i./ha) was 0%, the Efficacy [6, 7] was 50% and the Efficacy [6, 14] was 60%. It also gave an Efficacy [6, 9] of 30%.
In the case of `Cc1nnc(NC(=O)c2ccc(C(F)(F)F)c(-n3cccn3)c2Cl)o1` [A1-55], the Efficacy (Poa annua (POAAN); [7]) is reported as 5%, the Efficacy (Poa annua (POAAN); [14]) is reported as 20% and the Efficacy (Poa annua (POAAN); [16]) is reported as 0%. For the same molecule, the Efficacy (Poa annua (POAAN); [17]) was 0%, the Efficacy (Avena fatua (AVEFA); [7]) was 0% and the Efficacy (Avena fatua (AVEFA); [16]) was 0%. The Efficacy (Avena fatua (AVEFA); [17]) was 10%, the Efficacy (Galium aparine (GALAP); [7]) was 0% and the Efficacy (Galium aparine (GALAP); [14]) was 30%. For the same molecule, the Efficacy (Galium aparine (GALAP); [18]) was 15%, the Efficacy (DIGSA; [19]) was 20% and the Efficacy (DIGSA; [20]) was 30%. For the same molecule, the Efficacy [1, 19] was 20%, the Efficacy ([1]; 21 days after application, 0.5 g of a.i./ha) was 10% and the Efficacy (Bromus sterilis (BROST); [7]) was 5%. For the same molecule, the Efficacy (Bromus sterilis (BROST); [16]) was 0%, the Efficacy (Bromus sterilis (BROST); [18]) was 10% and the Efficacy [2, 7] was 0%. The Efficacy [2, 14] was 0%, the Efficacy [2, 18] was 0% and the Efficacy [2, 17] was 0%. It also gave an Efficacy (Phalaris minor (PHAMI); [7]) of 0%, an Efficacy (Phalaris minor (PHAMI); [14]) of 25% and an Efficacy (Phalaris minor (PHAMI); [21]) of 0%. For the same molecule, the Efficacy (Phalaris minor (PHAMI); [16]) was 0%, the Efficacy (Phalaris minor (PHAMI); [18]) was 5% and the Efficacy (Phalaris minor (PHAMI); [17]) was 5%. For the same molecule, the Efficacy [3, 7] was 0%, the Efficacy [3, 14] was 15% and the Efficacy [3, 16] was 0%. The Efficacy [3, 17] was 10%, the Efficacy (Eleusine indica (ELEIN); [22]) was 40% and the Efficacy (Eleusine indica (ELEIN); [20]) was 30%. The Efficacy (Setaria viridis (SETVI); [22]) was 40%, the Efficacy (Setaria viridis (SETVI); [20]) was 30% and the Efficacy [5, 22] was 70%. It also gave an Efficacy [6, 7] of 0%, an Efficacy [6, 14] of 30% and an Efficacy [6, 21] of 0%. It also gave an Efficacy [6, 16] of 0%, an Efficacy [6, 18] of 20% and an Efficacy [6, 17] of 20%.
